Data reported in patent US7732475B2, “Histone deacetylase inhibitors” (Takeda San Diego, Inc., priority 2005, dated 2010).
Read-outs that look alike come from different tables or passages of the source.

Target: HDAC2 (Homo sapiens, UniProt Q92769)
Experiment: HDAC2 fluorescence inhibition assay (tBoc-Lys(Ac)-AMC)

HDAC2, sequence (Q92769 with tags, fused parts or gaps): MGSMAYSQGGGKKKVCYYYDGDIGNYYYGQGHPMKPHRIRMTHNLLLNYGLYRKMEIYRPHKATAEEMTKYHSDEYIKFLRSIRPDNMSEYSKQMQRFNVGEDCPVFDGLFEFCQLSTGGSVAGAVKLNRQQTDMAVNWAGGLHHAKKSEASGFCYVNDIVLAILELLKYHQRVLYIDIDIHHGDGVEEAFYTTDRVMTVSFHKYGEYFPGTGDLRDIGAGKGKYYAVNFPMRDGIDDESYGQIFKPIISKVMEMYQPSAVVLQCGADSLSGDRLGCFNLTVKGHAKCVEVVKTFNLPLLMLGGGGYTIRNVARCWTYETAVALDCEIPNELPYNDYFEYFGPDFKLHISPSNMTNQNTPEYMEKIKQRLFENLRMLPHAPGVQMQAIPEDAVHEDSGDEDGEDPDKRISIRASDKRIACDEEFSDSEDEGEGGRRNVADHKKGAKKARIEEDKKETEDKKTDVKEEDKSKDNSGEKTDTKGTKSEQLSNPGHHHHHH

| SMILES | IC50 [nM] | IC50 (read-out: IC50 of selected exemplified compounds against HDAC2, 50 μM tBoc-Lys(Ac)-AMC, 1 nM HDAC2, 60 minutes at room temperature) [nM] |
| --- | --- | --- |
| CC(=O)Nc1ccc2c(C)n(Cc3ccc(C(=O)Nc4ccccc4N)cc3)nc2c1 [Example 86, 4-((6-acetamido-3-methyl-2H-indazol-2-yl)methyl)-N-(2-aminophenyl)benzamide] | ≤ 50 |  |
| CC(=O)Nc1ccc2c(C)nn(Cc3ccc(C(=O)Nc4ccccc4N)cc3)c2c1 [Example 87, 4-((6-acetamido-3-methyl-1H-indazol-1-yl)methyl)-N-(2-aminophenyl)benzamide] | 50 to 100 |  |
| Cc1c2cccc(C(F)(F)F)c2nn1Cc1ccc(C(=O)Nc2ccccc2N)cc1 [Example 91, N-(2-aminophenyl)-4-((3-methyl-7-(trifluoromethyl)-2H-indazol-2-yl)methyl)benzamide] | 50 to 100 |  |
| Cc1c2ccc(C(F)(F)F)cc2nn1Cc1ccc(C(=O)Nc2ccccc2N)cc1 [Example 92, N-(2-aminophenyl)-4-((3-methyl-6-(trifluoromethyl)-2H-indazol-2-yl)methyl)benzamide] | 50 to 100 |  |
| Cc1nn(Cc2ccc(C(=O)Nc3ccccc3N)cc2)c2cc(C(F)(F)F)ccc12 [Example 93, N-(2-aminophenyl)-4-((3-methyl-6-(trifluoromethyl)-1H-indazol-1-yl)methyl)benzamide] | 50 to 100 |  |
| Cc1nn(Cc2ccc(C(=O)Nc3ccccc3N)cc2)c2ccc(C(F)(F)F)cc12 [Example 94, N-(2-aminophenyl)-4-((3-methyl-5-(trifluoromethyl)-1H-indazol-1-yl)methyl)benzamide] | 50 to 100 |  |
| Cc1c2cc(C(F)(F)F)ccc2nn1Cc1ccc(C(=O)Nc2ccccc2N)cc1 [Example 95, N-(2-aminophenyl)-4-((3-methyl-5-(trifluoromethyl)-2H-indazol-2-yl)methyl)benzamide] | ≤ 50 |  |
| Nc1ccccc1NC(=O)c1ccc(Cn2nc(N)c3ccccc32)cc1 [Example 96, 4-((3-amino-1H-indazol-1-yl)methyl)-N-(2-aminophenyl)benzamide] | 50 to 100 |  |
| COc1cc2cnn(Cc3ccc(C(=O)Nc4ccccc4N)cc3)c2cc1OC [Example 99, N-(2-aminophenyl)-4-((5,6-dimethoxy-1H-indazol-1-yl)methyl)benzamide] | ≤ 50 |  |
| Nc1ncncc1NC(=O)c1ccc(Cn2cc3ccccc3n2)cc1 [Example 104, 4-((2H-indazol-2-yl)methyl)-N-(4-aminopyrimidin-5-yl)benzamide] | ≥ 500 |  |
| CC(=O)Nc1ccc2c(c1)c(N)nn2Cc1ccc(C(=O)Nc2ccccc2N)cc1 [Example 105, 4-((5-acetamido-3-amino-1H-indazol-1-yl)methyl)-N-(2-aminophenyl)benzamide] | 50 to 100 |  |
| CC(=O)Nc1ccc2nn(Cc3ccc(C(=O)Nc4ccccc4N)cc3)c(C)c2c1 [Example 106, 4-((5-acetamido-3-methyl-2H-indazol-2-yl)methyl)-N-(2-aminophenyl)benzamide] | ≤ 50 |  |
| CC(=O)Nc1ccc2c(c1)c(C)nn2Cc1ccc(C(=O)Nc2ccccc2N)cc1 [Example 107, 4-((5-acetamido-3-methyl-1H-indazol-1-yl)methyl)-N-(2-aminophenyl)benzamide] | 50 to 100 |  |
| CC(c1ccc(C(=O)Nc2ccccc2N)cc1)n1ncc2ccccc21 (centres unmarked) [Example 108, 4-(1-(1H-indazol-1-yl)ethyl)-N-(2-aminophenyl)benzamide] | 50 to 100 |  |
| CC(c1ccc(C(=O)Nc2ccccc2N)cc1)n1cc2ccccc2n1 (centres unmarked) [Example 109, 4-(1-(2H-indazol-2-yl)ethyl)-N-(2-aminophenyl)benzamide] | 50 to 100 |  |
| CC(=O)Nc1ccc2c(cnn2Cc2ccc(C(=O)Nc3ccccc3N)s2)c1 [Example 110, 5-((5-acetamido-1H-indazol-1-yl)methyl)-N-(2-aminophenyl)thiophene-2-carboxamide] | 50 to 100 |  |
| Nc1ccc(-c2cccs2)cc1NC(=O)c1ccc(Cn2cc3ccccc3n2)cc1 [Example 111, 4-((2H-indazol-2-yl)methyl)-N-(2-amino-5-(thiophen-2-yl)phenyl)benzamide] | ≤ 50 |  |
| Nc1ccc(-c2cccs2)cc1NC(=O)c1ccc(Cn2cc3c(F)cc(F)cc3n2)cc1 [Example 112, N-(2-amino-5-(thiophen-2-yl)phenyl)-4-((4,6-difluoro-2H-indazol-2-yl)methyl)benzamide] | 100 to 500 |  |
| Nc1ccc(-c2cccs2)cc1NC(=O)c1ccc(Cn2ncc3c(F)cc(F)cc32)cc1 [Example 113, N-(2-amino-5-(thiophen-2-yl)phenyl)-4-((4,6-difluoro-1H-indazol-1-yl)methyl)benzamide] | 100 to 500 |  |
| COc1ccc2c(C)nn(Cc3ccc(C(=O)Nc4cc(-c5cccs5)ccc4N)cc3)c2c1 [Example 114, N-(2-amino-5-(thiophen-2-yl)phenyl)-4-((6-methoxy-3-methyl-1H-indazol-1-yl)methyl)benzamide] | 50 to 100 |  |
| COc1ccc2c(C)n(Cc3ccc(C(=O)Nc4cc(-c5cccs5)ccc4N)cc3)nc2c1 [Example 116, N-(2-amino-5-(thiophen-2-yl)phenyl)-4-((6-methoxy-3-methyl-2H-indazol-2-yl)methyl)benzamide] | 50 to 100 |  |
| Nc1ccccc1NC(=O)c1ccc(Cn2ncc3c(C(F)(F)F)cccc32)cc1 [Example 117, N-(2-aminophenyl)-4-((4-(trifluoromethyl)-1H-indazol-1-yl)methyl)benzamide] | 50 to 100 |  |
| Nc1ccccc1NC(=O)c1ccc(Cn2cc3c(C(F)(F)F)cccc3n2)cc1 [Example 118, N-(2-aminophenyl)-4-((4-(trifluoromethyl)-2H-indazol-2-yl)methyl)benzamide] | 50 to 100 |  |
| Nc1ccccc1NC(=O)c1ccc(Cn2ncc3cc(C(F)(F)F)ccc32)cc1 [Example 119, N-(2-aminophenyl)-4-((5-(trifluoromethyl)-1H-indazol-1-yl)methyl)benzamide] | 50 to 100 |  |
| Nc1ccccc1NC(=O)c1ccc(Cn2cc3cc(C(F)(F)F)ccc3n2)cc1 [Example 120, N-(2-aminophenyl)-4-((5-(trifluoromethyl)-2H-indazol-2-yl)methyl)benzamide] | 50 to 100 |  |

Results, then the molecule that gave them:

| IC50 [nM] | IC50 (read-out: IC50 of selected exemplified compounds against HDAC2, 50 μM tBoc-Lys(Ac)-AMC, 1 nM HDAC2, 60 minutes at room temperature) [nM] | SMILES |
| --- | --- | --- |
| ≤ 50 |  | COc1cccc2nn(Cc3ccc(C(=O)Nc4ccccc4N)cc3)cc12 [Example 83, N-(2-aminophenyl)-4-((4-methoxy-2H-indazol-2-yl)methyl)benzamide] |
| 100 to 500 |  | COc1cccc2cnn(Cc3ccc(C(=O)Nc4ccccc4N)cc3)c12 [Example 84, N-(2-aminophenyl)-4-((7-methoxy-1H-indazol-1-yl)methyl)benzamide] |
| ≤ 50 |  | COc1cccc2c1cnn2Cc1ccc(C(=O)Nc2ccccc2N)cc1 [Example 85, N-(2-aminophenyl)-4-((4-methoxy-1H-indazol-1-yl)methyl)benzamide] |
| 50 to 100 |  | Nc1ccccc1NC(=O)c1ccc(Cn2nc3ccccc3c2N)cc1 [Example 88, 4-((3-amino-2H-indazol-2-yl)methyl)-N-(2-aminophenyl)benzamide] |
| ≤ 50 |  | CC(=O)Nc1ccc2cnn(Cc3ccc(C(=O)Nc4ccccc4N)cc3)c2c1 [Example 89, 4-((6-acetamido-1H-indazol-1-yl)methyl)-N-(2-aminophenyl)benzamide] |
| ≤ 50 |  | CC(=O)Nc1ccc2cn(Cc3ccc(C(=O)Nc4ccccc4N)cc3)nc2c1 [Example 90, 4-((6-acetamido-2H-indazol-2-yl)methyl)-N-(2-aminophenyl)benzamide] |
| 50 to 100 |  | COc1cc2nn(Cc3ccc(C(=O)Nc4ccccc4N)cc3)cc2cc1O [Example 97, N-(2-aminophenyl)-4-((5-hydroxy-6-methoxy-2H-indazol-2-yl)methyl)benzamide] |
| ≤ 50 |  | COc1cc2cn(Cc3ccc(C(=O)Nc4ccccc4N)cc3)nc2cc1OC [Example 98, N-(2-aminophenyl)-4-((5,6-dimethoxy-2H-indazol-2-yl)methyl)benzamide] |
| 50 to 100 |  | Nc1ccccc1NC(=O)c1ccc(Cn2nnc3ccccc32)cc1 [Example 100, 4-((1H-benzo[d][1,2,3]triazol-1-yl)methyl)-N-(2-aminophenyl)benzamide] |
| 50 to 100 |  | Nc1ccccc1NC(=O)c1ccc(Cn2nc3ccccc3n2)cc1 [Example 101, 4-((2H-benzo[d][1,2,3]triazol-2-yl)methyl)-N-(2-aminophenyl)benzamide] |
|  | ≥ 500 | CC(=O)Nc1ccc2c(cnn2Cc2ccc(C(=O)Nc3ccccc3N)cc2)c1 [Example 102, 4-((5-acetamido-1H-indazol-1-yl)methyl)-N-(2-aminophenyl)benzamide] |
| ≤ 50 |  | Nc1ccccc1NC(=O)c1ccc(Cn2cc(C(=O)NCCN3CCNCC3)cn2)cc1 [Example 103, 1-(4-(2-aminophenylcarbamoyl)benzyl)-N-(2-(piperazin-1-yl)ethyl)-1H-pyrazole-4-carboxamide] |
| ≤ 50 |  | Cc1cnn(Cc2ccc(C(=O)Nc3cc(-c4cccs4)ccc3N)cc2)c1 [Example 115, N-(2-amino-5-(thiophen-2-yl)phenyl)-4-((4-methyl-1H-pyrazol-1-yl)methyl)benzamide] |
| ≤ 50 |  | Nc1ccccc1NC(=O)c1ccc(Cn2cc3ccc(C(F)(F)F)cc3n2)cc1 [Example 121, N-(2-aminophenyl)-4-((6-(trifluoromethyl)-2H-indazol-2-yl)methyl)benzamide] |
| ≥ 500 |  | Nc1ccccc1NC(=O)c1ccc(Cn2cc(C(=O)O)cn2)cc1 [Example 122, 1-(4-(2-aminophenylcarbamoyl)benzyl)-1H-pyrazole-4-carboxylic acid] |
| 100 to 500 |  | Cc1ccn(Cc2ccc(C(=O)Nc3ccccc3N)cc2)n1 [Example 123, N-(2-aminophenyl)-4-((3-methyl-1H-pyrazol-1-yl)methyl)benzamide] |
| 100 to 500 |  | Cc1cc(C)n(Cc2ccc(C(=O)Nc3ccccc3N)cc2)n1 [Example 124, N-(2-aminophenyl)-4-((3,5-dimethyl-1H-pyrazol-1-yl)methyl)benzamide] |
| 50 to 100 |  | CCOC(=O)c1cnn(Cc2ccc(C(=O)Nc3ccccc3N)cc2)c1 [Example 125, Ethyl 1-(4-(2-aminophenylcarbamoyl)benzyl)-1H-pyrazole-4-carboxylate] |
| ≤ 50 |  | Nc1ccccc1NC(=O)c1ccc(Cn2cc(C(=O)NCc3ccccn3)cn2)cc1 [Example 126, 1-(4-(2-aminophenylcarbamoyl)benzyl)-N-(pyridin-2-ylmethyl)-1H-pyrazole-4-carboxamide] |
